Experimental data as given in article PMC12467382, “Synthesis and Bioevaluation of Chalcones as Broad-Spectrum Antiviral Compounds Against Single-Stranded RNA Viruses” (Biomolecules, 2025).
Values joined by “and” are separate entries in the source; they are usually repeats but may differ in a detail not shown here. Identical values can stand only once.

How the values were obtained:
CHO-K1 cells = test: cells; type: cell-based, Chinese hamster; conditions: for CHOK1 48 h EC10: Chinese hamster; for EC50: Cricetulus griseus, CHO-K1, 48 h, read-out: CHOK1 48 h EC50
Procedure: A cell growth assay using the MTS reagent was conducted to assess the general toxicity of each chalcone compound. Briefly, cell growth was assayed in sterile 96-well microtiter plates (Costar 3599, Corning Inc., Corning, NY, USA) in the presence of each chalcone. Experiments were conducted in triplicate. In a typical experiment, there are two plates. The first is the control plate, which allows one to assess the starting cell population on the day of drug addition (Day 0). The second plate is the test plate where cells are plated and tested with different drug concentrations on Day 0. For example, either CHO cells or Hs27 cells were plated in a 200 µL volume at 1000 cells/well on both the control and test plates and incubated overnight to allow the cells to adhere. On Day 0, 1 μL of PBS was added to the control plate wells so that their total volume was 201 μL. MTS reagent (Promega Cell Titer 96 Aqueous non-radioactive cell proliferation reagent, Promega, Madison, WI, USA) was added (20 μL) to each well on the control plate, and that plate was incubated for 4 h in a 5% CO2 atmosphere at 37 °C and then read on the plate reader.
On Day 0, 1 μL of a 200× stock solution of each chalcone was added to the respected well on the test plate, and each condition was tested in triplicate. Drug solutions were prepared in advance in 100% DMSO and dosed so that the final DMSO concentration was 0.5%. For example, 1 μL of chalcone solution was added to the cells plated in each well in 200 μL of media. Of note, the respective chalcone addition occurred after an initial overnight incubation of each cell line in each well to reach Day 0 (the drugging day). After the chalcone was added, the cells were incubated in 5% CO2 for 48 h at 37 °C. After 48 h, the MTS reagent (Promega, Madison, WI, USA) was added (20 μL), and the test plates were incubated for an additional 4 h, and then, absorbance at 490 nm was measured on a BioTek Synergy MX plate reader. […] IC50 values were determined from the corresponding plot of relative absorbance at 490 nm vs. the drug concentration.
For highly colored materials like the chalcones, it is important to consider the contribution of the compound’s own absorbance to the MTS assay. To correct for the absorbance contribution of the chalcone itself, we measured each chalcone’s absorbance (Chalcone Abs) at 490 nm at the respective concentration (e.g., 10 µM) and subtracted the absorbance of the media background (blank Abs). This net value was then subtracted out of the Day 2 absorbance value to provide the % relative growth via the following equation:(1) % Relative Growth = (Day 2 Abs−Day 2 blank Abs)−Chalcone Abs−blank Abs−(Day 0 Abs−Day 0 blank Abs)/(Day 2 Control Abs −Day 2 blank Abs)−(Day 0 Abs−Day 0 blank Abs) ×100%
With the chalcones in hand, we then evaluated their growth-inhibition properties in Chinese hamster ovary (CHO-K1) cells and human Hs27 fibroblast cells. […] The results are shown in Table 2 along with a SAR summary of our findings in the host Hs27 cells.

Hs27 cells = test: Propidium iodide (PI) staining cytotoxicity in Hs27 cells by flow cytometry; type: cell-based; conditions: for PI+ cells: 10 µM, 24 h post-treatment, untreated control subtracted; for PI MTC: 24 h, concentration giving 10% PI+ cells, Hs27 cells, standard curve
Procedure: Chalcone treatments were performed in DMEM supplemented with 10% HI FBS at the indicated concentrations and for indicated periods of time. Chalcone stocks were reconstituted in 100% dimethyl sulfoxide (DMSO) at a concentration of 10 mM and were serially diluted to working concentrations in DMSO. DMSO control treatments to test the effect of the vehicle were performed at volumes corresponding to the volume of chalcone added during each experiment (i.e., 1 µL chalcone DMSO solution/1 mL DMEM [10 µM] utilized alongside the DMSO control of 1 µL/1 mL DMEM). For cytotoxicity assays, untreated controls were subtracted from DMSO and chalcone sample values to account for the background signal.
For cytotoxicity assays, cells were stained with propidium iodide (PI) at a dilution of 1:100. Cell viability was determined via flow cytometry using the CytoFLEX (Beckman Coulter, Brea, CA, USA). CytExpert software (Beckman Coulter, version 2.4) was used to analyze independent events. PIV5 infection was monitored using flow cytometry via the FITC channel by analyzing GFP expression of individual cells. ZIKV infection was monitored utilizing Flavivirus group antigen–antibody (D1-4G2-4-15; Novus Biologicals, Littleton, CO, USA) staining for the ZIKV envelope protein. Cells were fixed and permeabilized using eBioscience Intracellular Fixation and Permeabilization Buffer (Invitrogen, Thermo Fisher Scientific, MA, USA) according to the manufacturer’s instructions. Secondary staining was performed using an anti-Alexa Fluor 488 (AF488) antibody (Invitrogen, Thermo Fisher Scientific, MA, USA). OC43 infection was monitored utilizing a primary antibody targeted toward the OC43 nucleocapsid protein (NP, MAB9013, Sigma-Aldrich, St. Louis, MO, USA). Secondary staining was performed using an AF488 antibody. Cells were fixed and permeabilized as previously described. LACV infection was monitored utilizing an anti-LACV Gc 807.31ab antibody kindly provided by Andrew Pekosv. Secondary staining was performed using an AF488 antibody. Cells were fixed and permeabilized as previously described.
To determine the actual cytotoxic effects of select chalcones in the series, human fibroblast Hs27 cells were treated with DMSO as a control or treated with each selected chalcone at a concentration of 10 µM. At 24 h post-treatment (hpt), the Hs27 cells were stained with propidium iodide (PI), a stain for cells with permeable plasma membranes, and then processed for flow cytometry (see Figure 4). […] These cytotoxicity findings reflected the relative growth-inhibition properties of 8f, 8l, 8o, 8p, 8s, 8w, 8x, and 8z observed in Table 2 (see Hs27 cell data).
The GFP IC50 was defined as the concentration of chalcone required to inhibit the GFP expression (as measured via flow cytometry) by 50% when compared to DMSO-treated cells. […] To determine these PI MTCs, Hs27 cells were treated with each chalcone at various concentrations for 24 h and then analyzed via flow cytometry for positive PI staining. Untreated controls were subtracted to account for background staining. […] Immediately following infection, media were replaced with chalcone-supplemented media at specified concentrations. GFP expression was analyzed via flow cytometry at 24 hpi.

SMILES | CHOK1 48 h EC10 (CHO-K1 cells) [µM] | EC50 (CHO-K1 cells) [µM] | PI+ cells (Hs27 cells) | PI MTC (Hs27 cells) [µM]
CCOc1ccc(Cl)cc1/C=C/C(=O)c1c(O)cccc1OCc1ccccc1 [Chalcone 8p] | 8.2 ± 0.3 | 25.8 ± 1.1 | < 10% | 8.4
CCOc1ccc(Br)cc1/C=C/C(=O)c1c(O)cccc1OCc1ccc(-c2ccccc2)cc1 [Chalcone 8v, (2E)-1-[2-(Biphenyl-4-Ylmethoxy)-6-Hydroxy-Phenyl]3-(5-Bromo-2-Ethoxy-Phenyl)-Propenone] | 3.7 ± 0.3 | > 50 | – | –
COc1cc(/C=C/C(=O)c2c(O)cccc2OCc2ccccc2)cc(OC)c1OC [Chalcone 8z, (2E)-1-(2-Benzloxy-6-Hydroxy-Phenyl)-3-(3,4,5-Trimethoxy-Phenyl)-Propenone] | 3.8 ± 0.4 | 5.8 ± 0.4 | 40–60% | 2.4
COc1ccc(Br)cc1/C=C/C(=O)c1c(O)cccc1OCCC(C)C [Chalcone 8s, (2E)-3-(5-Bromo-2-Methoxy-Phenyl)-1-[2-Hydroxy-6-(3-Methyl-Butoxy)-Phenyl]-Propenone] | 5.4 ± 0.3 | 8.6 ± 0.3 | 40–60% | 3.5
CCOc1ccc(Br)cc1/C=C/C(=O)c1c(O)cccc1OCc1ccccc1 [Chalcone 8o] | 7.0 ± 0.4 | 9.9 ± 0.7 | < 10% and 8.5% | 10.5
COc1ccc(Br)cc1/C=C/C(=O)c1c(O)cccc1OCc1ccccc1 [Chalcone 8l] | 5.2 ± 0.3 | 8.1 ± 1 | 40–60% and 57.7% | 7.0
COc1ccc(Br)cc1/C=C/C(=O)c1c(O)cccc1OCc1ccc(-c2ccccc2)cc1 [Chalcone 8w, (2E)-1-[2-(Biphenyl-4-Ylmethoxy)-6-Hydroxy-Phenyl]3-(5-Bromo-2-Methoxy-Phenyl)-Propenone] | 6.8 ± 0.3 | 10.1 ± 1 | ~ 11% | 4.5
COc1ccc(Br)cc1/C=C/C(=O)c1c(O)cccc1OC [Chalcone 8f] | 2.5 ± 0.1 | 6.1 ± 0.8 | 52.60% and 40–60% | 4.9
COc1ccc(O)cc1/C=C/C(=O)c1c(O)cccc1OCc1ccccc1 [Chalcone 8x, (2E)-1-(2-Benzloxy-6-Hydroxy-Phenyl)-5-(5-Hydroxy-2-Methoxy-Phenyl)-Propenone] | 3.8 ± 0.4 | 6.3 ± 0.3 | 40–60% | –
COc1ccccc1/C=C/C(=O)c1ccccc1O [Chalcone 8a] | 9.3 ± 0.6 | 25.5 ± 2.7 | – | >15
